Reference: US9913843B2, “Protein kinase C inhibitors and uses thereof” (Rigel Pharmaceuticals, Inc., priority 2012, dated 2018)
Like-named read-outs stand apart in the source and are kept apart here.

System: PKC mediated IL-2 production in human primary T cells
Test: IL-2 ELISA, human primary T cell, anti CD3+CD28+ (whole cell functional assay for PKC mediated IL-2 production)
Assay type: cell-based
Method: Human primary T cells were prepared as follows. Fresh PBMC's from All Cells (Cat # PB002) were re-suspended in RPMI (RPMI-1640 with L-Glutamine; Mediatech, Inc., Herndon Va., cat. #10-040-CM) with 10% FBS and seeded into flasks and incubated at 37° C. for 2 hours to allow the monocytes to adhere. The non-adherent cells were then centrifuged and re-suspended in RPMI medium containing 40 U/ml IL2 and seeded into a flask pre-coated with 1 μg/ml aCD3 and 5 ug/ml aCD28 (Anti-Human CD3, BD Pharmingen Catalog #555336, Anti-Human CD28, Beckman Coulter Catalog #IM1376). The cells were stimulated for 3-4 days, then transferred to a fresh flask and maintained in RPMI (RPMI-1640 with L-Glutamine; Mediatech, Inc., Herndon Va., cat. #10-040-CM) with 10% FBS and 40 U/ml IL-2.
Human primary T cells (100,000 cells per well) were pre-incubated with or without test compound in RPMI-1640 with L-Glutamine and 10% FBS for 1 hour at 37° C. Cells were then stimulated by transferring them to round-bottom 96-well plates pre-coated with 1 μg/ml aCD3 and 5 μg/ml aCD28. For counter assay, cells were instead stimulated by adding 8× stock solutions of PMA and ionomycin in RPMI-1640 with L-Glutamine and 10% FBS (for final concentrations of 0.5 ng/ml PMA and 0.1 μM ionomycin, both from Calbiochem). Cells were incubated at 37° C. for 24 hours before 100 μL supernatants were harvested for quantification of IL-2 by ELISA using Human IL-2 Duoset ELISA Kit from R and D Systems, Cat. # DY202E.
Compounds 1-156 were tested in a whole cell functional assay for PKC mediated IL-2 production as follows. Human primary T cell isolation and culture: Human primary T cells were prepared as follows. Whole blood was obtained from a healthy volunteer, mixed 1:1 with PBS, layered on to Ficoll Hypaque (Amersham Pharmacia Biotech, Piscataway, N.J., Catalog #17-1440-03) in 2:1 blood/PBS:ficoll ratio and centrifuged for 30 minutes at 4° C. at 1750 rpm. The cells at the serum: ficoll interface were recovered and washed twice with 5 volumes of PBS. These freshly isolated human peripheral blood mononuclear cells were cultured in Yssel's medium containing 40 U/ml IL2 in a flask pre-coated with 1 μg/ml aCD3 and 5 μg/ml aCD28 (Anti-Human CD3, BD Pharmingen Catalog #555336, Anti-Human CD28, Beckman Coulter Catalog #IM1376). The cells were stimulated for 3-4 days, then transferred to a fresh flask and maintained in RPMI (RPMI-1640 with L-Glutamine; Mediatech, Inc., Herndon Va., cat. #10-040-CM) with 10% FBS and 40 U/ml IL-2. The primary T-cells were then washed twice with PBS to remove the IL-2.
Primary T cell stimulation and IL2 ELISA: Human primary T cells (100,000 cells per well) were pre-incubated with or without test compound in Yssel's medium for 1 hour at 37° C. Cells were then stimulated by transferring them to round-bottom 96-well plates pre-coated with 1 μg/ml aCD3 and 5 μg/ml αCD28. For counter assay, cells were instead stimulated by adding 8× stock solutions of PMA and ionomycin in Yssels (for final concentrations of 0.5 ng/ml PMA and 0.1 uM ionomycin, both from Calbiochem). Cells were incubated at 37° C. for 24 hours before 100 μL supernatants were harvested for quantification of IL-2 by ELISA using Human IL-2 Duoset ELISA Kit from R and D Systems, Cat. # DY202E.

[1] = 24 h, human primary T cells stimulated with anti-CD3 + anti-CD28, IL-2 by ELISA, read-out: IC50 for blocking IL-2 production
[2] = human primary T cells stimulated with anti-CD3 + anti-CD28, 24 h, IL-2 by ELISA, 8 pt, read-out: IL2 ELISA, Human primary T cell, anti-CD3 + CD28, 8 pt (IC50)

Structure (SMILES)	IC50 [1]	IC50 [2]
Fc1cnc(Nc2ccccc2)nc1NC[C@@H]1CCCN2CCCC[C@H]12 [Compound 13, 5-fluoro-N4-(((1S,9aR)-octahydro-1H-quinolizin-1-yl)methyl)-N2-phenylpyrimidine-2,4-diamine]	< 30000 nM	4480 nM
Cn1nnn(-c2cc(Nc3ncc(F)c(NC[C@@H]4CCCN5CCCC[C@H]45)n3)ccc2OC2COC2)c1=O [Compound 14, 1-(5-(4-(((1S,9aR)-octahydro-1H-quinolizin-1-yl)methylamino)-5-fluoropyrimidin-2-ylamino)-2-(oxetan-3-yloxy)phenyl)-4-methyl-1H-tetrazol-5(4H)-one]	< 30000 nM	201 nM
Cc1cc(C2CC2)c(-n2nnn(C)c2=O)cc1Nc1ncc(F)c(NC[C@@H]2CCCN3CCCC[C@H]23)n1 [Compound 15, 1-(5-(4-(((1S,9aR)-octahydro-1H-quinolizin-1-yl)methylamino)-5-fluoropyrimidin-2-ylamino)-2-cyclopropyl-4-methylphenyl)-4-methyl-1H-tetrazol-5(4H)-one]	< 30000 nM	10600 nM
CC(C)N1C(=O)C(C)(C)Oc2cc(Nc3ncc(F)c(NC[C@@H]4CCCN5CCCC[C@H]45)n3)ccc21 [Compound 16, 7-(4-(((1S,9aR)-octahydro-1H-quinolizin-1-yl)methylamino)-5-fluoropyrimidin-2-ylamino)-4-isopropyl-2,2-dimethyl-2H-benzo[b][1,4]oxazin-3(4H)-one]	< 30000 nM	702 nM
COc1cc(Nc2ncc(F)c(NC[C@@H]3CCCN4CCCC[C@H]34)n2)cc(-n2nnn(C)c2=O)c1 [Compound 17, 1-(3-(4-(((1S,9aR)-octahydro-1H-quinolizin-1-yl)methylamino)-5-fluoropyrimidin-2-ylamino)-5-methoxyphenyl)-4-methyl-1H-tetrazol-5(4H)-one]	< 30000 nM	405 nM
CC1(C)Oc2cc(Nc3ncc(F)c(NC[C@@H]4CCCN5CCCC[C@H]45)n3)ccc2N(CC2CC2)C1=O [Compound 18, 7-(4-(((1S,9aR)-octahydro-1H-quinolizin-1-yl)methylamino)-5-fluoropyrimidin-2-ylamino)-4-(cyclopropylmethyl)-2,2-dimethyl-2H-benzo[b][1,4]oxazin-3(4H)-one]	< 30000 nM	126 nM
Fc1cnc(Nc2ccc(N3CCOCC3)c(C(F)(F)F)c2)nc1NC[C@@H]1CCCN2CCCC[C@H]12 [Compound 19, 5-fluoro-N2-(3-(trifluoromethyl)-4-morpholinophenyl)-N4-(((1S,9aR)-octahydro-1H-quinolizin-1-yl)methyl)pyrimidine-2,4-diamine]	< 30000 nM	554 nM
Fc1cnc(Nc2ccc3c(c2)OC(F)(F)C(F)(F)O3)nc1NC[C@@H]1CCCN2CCCC[C@H]12 [Compound 20, 5-fluoro-N2-(2,2,3,3-tetrafluoro-2,3-dihydrobenzo[b][1,4]dioxin-7-yl)-N4-(((1S,9aR)-octahydro-1H-quinolizin-1-yl)methyl)pyrimidine-2,4-diamine]	< 30000 nM	1080 nM
COc1cc(F)cc(Nc2ncc(F)c(NC[C@@H]3CCCN4CCCC[C@H]34)n2)c1 [Compound 21, 5-fluoro-N2-(3-fluoro-5-methoxyphenyl)-N4-(((1S,9aR)-octahydro-1H-quinolizin-1-yl)methyl)pyrimidine-2,4-diamine]	< 30000 nM	702 nM

Other lines, results leading:

IC50 [1]	IC50 [2]	Structure (SMILES)
< 30000 nM	107 nM	N#Cc1cc(Nc2ncc(F)c(NC[C@@H]3CCCN4CCCC[C@H]34)n2)ccc1C1CC1 [Compound 1, 5-(4-(((1S,9aR)-octahydro-1H-quinolizin-1-yl)methylamino)-5-fluoropyrimidin-2-ylamino)-2-cyclopropylbenzonitrile]
< 30000 nM	372 nM	Fc1cc(C2CC2)c(-n2cnnn2)cc1Nc1ncc(F)c(NC[C@@H]2CCCN3CCCC[C@H]23)n1 [Compound 2, N2-(4-cyclopropyl-2-fluoro-5-(1H-tetrazol-1-yl)phenyl)-5-fluoro-N4-(((1S,9aR)-octahydro-1H-quinolizin-1-yl)methyl)pyrimidine-2,4-diamine]
< 30000 nM	1680 nM	Cn1nnn(-c2cc(Nc3ncc(F)c(NC[C@@H]4CCCN5CCCC[C@H]45)n3)c(F)cc2C2CC2)c1=O [Compound 3, 1-(5-(4-(((1S,9aR)-octahydro-1H-quinolizin-1-yl)methylamino)-5-fluoropyrimidin-2-ylamino)-2-cyclopropyl-4-fluorophenyl)-4-methyl-1H-tetrazol-5(4H)-one]
< 30000 nM	142 nM	Cc1ccc(Nc2ncc(F)c(NC[C@@H]3CCCN4CCCC[C@H]34)n2)cc1-n1cnnn1 [Compound 4, 5-fluoro-N4-(((1S,9aR)-octahydro-1H-quinolizin-1-yl)methyl)-N2-(4-methyl-3-(1H-tetrazol-1-yl)phenyl)pyrimidine-2,4-diamine]
< 30000 nM	120 nM	N#Cc1cc(Nc2ncc(Cl)c(NCC3CCCN4CCCCC34)n2)ccc1C1CC1 [Compound 5, 5-(4-(((1S,9aR)-octahydro-1H-quinolizin-9-yl)methylamino)-5-chloropyrimidin-2-ylamino)-2-cyclopropylbenzonitrile]
< 30000 nM	88.9 nM	COc1ccc(Nc2ncc(F)c(NC[C@@H]3CCCN4CCCC[C@H]34)n2)cc1-n1nnnc1C [Compound 6, 5-fluoro-N4-(((1S,9aR)-octahydro-1H-quinolizin-1-yl)methyl)-N2-(4-methoxy-3-(5-methyl-1H-tetrazol-1-yl)phenyl)pyrimidine-2,4-diamine]
< 30000 nM	428 nM	Cc1nnnn1-c1ccc(F)c(Nc2ncc(F)c(NC[C@@H]3CCCN4CCCC[C@H]34)n2)c1 [Compound 7, 5-fluoro-N2-(2-fluoro-5-(5-methyl-1H-tetrazol-1-yl)phenyl)-N4-(((1S,9aR)-octahydro-1H-quinolizin-1-yl)methyl)pyrimidine-2,4-diamine]
< 30000 nM	106 nM	Cc1nnnn1-c1cc(Nc2ncc(F)c(NC[C@@H]3CCCN4CCCC[C@H]34)n2)ccc1F [Compound 8, 5-fluoro-N2-(4-fluoro-3-(5-methyl-1H-tetrazol-1-yl)phenyl)-N4-(((1S,9aR)-octahydro-1H-quinolizin-1-yl)methyl)pyrimidine-2,4-diamine]
< 30000 nM	195 nM	Cc1ccc(Nc2ncc(F)c(NC[C@@H]3CCCN4CCCC[C@H]34)n2)cc1C#N [Compound 9, 5-(4-(((1S,9aR)-octahydro-1H-quinolizin-1-yl)methylamino)-5-fluoropyrimidin-2-ylamino)-2-methylbenzonitrile]
< 30000 nM	594 nM	N#Cc1cccc(Nc2ncc(F)c(NC[C@@H]3CCCN4CCCC[C@H]34)n2)c1 [Compound 10, 3-(4-(((1S,9aR)-octahydro-1H-quinolizin-1-yl)methylamino)-5-fluoropyrimidin-2-ylamino)benzonitrile]
< 30000 nM	1080 nM	COc1cc(Nc2ncc(F)c(NC[C@@H]3CCCN4CCCC[C@H]34)n2)cc(OC)c1 [Compound 11, 5-fluoro-N4-(((1S,9aR)-octahydro-1H-quinolizin-1-yl)methyl)-N2-(3,5-dimethoxyphenyl)pyrimidine-2,4-diamine]
< 30000 nM	889 nM	N#Cc1cc(Nc2ncc(F)c(NC[C@@H]3CCCN4CCCC[C@H]34)n2)c(F)cc1C1CC1 [Compound 12, 5-(4-(((1S,9aR)-octahydro-1H-quinolizin-1-yl)methylamino)-5-fluoropyrimidin-2-ylamino)-2-cyclopropyl-4-fluorobenzonitrile]
